Reference: publication PMC10313671, “Accelerating the prediction and discovery of peptide hydrogels with human-in-the-loop” (Nature Communications, 2023)
Where a SMILES comes first, the peptide text is derived from it.

Tests used:
[1] = Transmission electron microscope (negative staining) of peptide assemblies; details: for Morphology: TEM, negative staining with uranyl acetate, 120 kV; for morphology by TEM (in words): aqueous solution or hydrogel, negative staining
Procedure: We used the negative staining technique to observe the morphologies formed by peptides. A micropipette was used to load 10 μL of sample solution to a carbon-coated copper grid, and we used a piece of filter paper to remove the excess solution. After rinsing the grid with the deionized water, we used uranyl acetate to stain the sample for 1 minute and then rinsed the grid with deionized water again.

[2] = Peptide hydrogel formation, vial-inverting method; format: physicochemical; set-up: key to EXP / GELATION: 0: no hydrogel; 1: hydrogel; details: for State: ultrasonication, standing 48 h; for State / GELATION / hydrogel formation (in words): vial-inverting method; for Concentration: concentration at which the state was recorded: lowest of 30, 60, 90, 120 mM that gave a gel, 120 mM for non-gelating peptides; for GELATION: 1 = hydrogel, 0 = no hydrogel; for hydrogel formation (in words): representative hydrogels pH between 7.0 to 7.5
In short: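 Gelation judged by vial inversion, a non-flowing self-supporting sample counting as hydrogel, after 48 h standing. Peptide in water at 30 mM first, escalating to 60, 90 and 120 mM if no gel; pH set to 6.5–8.5 by stepwise 1 N NaOH, each step sonicated briefly.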

[3] = 120 mM peptide (highest tested) in ultrapure water, pH 6.5-8.5 (1 N NaOH), precipitate, sol, suspension = no gel
[4] = 30 mM peptide in ultrapure water, pH adjusted to 6.5-8.5 with 1 N NaOH, concentration raised 30/60/90/120 mM until gelation
[5] = 60 mM peptide in ultrapure water, pH 6.5-8.5 (1 N NaOH), no gel at 30 mM

Row | Compound | Morphology ([1]; line of the table gives 120 mM) | State [2, 3] | Concentration [2] [µM] | GELATION ([2]; peptide concentration 120 mM) | State [2, 4] | GELATION ([2]; peptide concentration 30 mM) | further results
1 | NCCCC[C@H](NC(=O)[C@H](Cc1ccccc1)NC(=O)[C@H](Cc1ccccc1)NC(=O)[C@@H](N)CCC(=O)O)C(=O)O [EFFK] (H-EFFK-OH) | aggregates | sol | 120000 | 0 |  |  | 
2 | C[C@@H](O)[C@H](NC(=O)[C@H](Cc1ccccc1)NC(=O)[C@H](Cc1c[nH]c2ccccc12)NC(=O)[C@@H](N)CS)C(=O)O [CWFT] (H-CWFT-OH) | aggregates | suspension | 120000 | 0 |  |  | 
3 | CC(C)C[C@H](NC(=O)[C@@H](N)CC(C)C)C(=O)N[C@@H](Cc1c[nH]cn1)C(=O)N[C@@H](Cc1ccccc1)C(=O)O [LLHF] (H-LLHF-OH) |  |  | 30000 |  | gel | 1 | Morphology ([1]; line of the table gives 30 mM): hybrid(sphere+fibre)
4 | NCCCC[C@H](NC(=O)[C@H](CCCCN)NC(=O)[C@H](CCCCN)NC(=O)[C@@H](N)CCCCN)C(=O)O [KKKK] (H-KKKK-OH) | blank | sol | 120000 | 0 |  |  | 
5 | CC[C@H](C)[C@H](NC(=O)[C@@H](NC(=O)[C@@H](N)Cc1ccccc1)C(C)C)C(=O)N[C@@H](Cc1ccc(O)cc1)C(=O)O [FVIY] (H-FVIY-OH) |  |  | 30000 |  | gel | 1 | morphology by TEM (in words) [1]: entangled nanofibers; hydrogel formation (in words) [2]: hydrogels
6 | CCCC [tetrapeptide] | sphere | suspension | 120000 | 0 |  |  | 
7 | C[C@@H](O)[C@H](NC(=O)[C@@H](N)CS)C(=O)N[C@@H](Cc1ccc(O)cc1)C(=O)N[C@@H](Cc1ccccc1)C(=O)O [CTYF] (H-CTYF-OH) |  |  | 30000 |  | gel | 1 | Morphology ([1]; line of the table gives 30 mM): fibre
8 | N[C@@H](Cc1ccccc1)C(=O)N[C@@H](Cc1ccccc1)C(=O)N[C@@H](Cc1ccccc1)C(=O)N[C@@H](Cc1ccccc1)C(=O)O [FFFF] (H-FFFF-OH) |  |  | 30000 |  | gel | 1 | Morphology ([1]; line of the table gives 30 mM): sheet
9 | CC(C)[C@H](NC(=O)[C@@H](N)Cc1ccc(O)cc1)C(=O)N[C@@H](Cc1ccccc1)C(=O)N[C@@H](C)C(=O)O [YVFA] (H-YVFA-OH) | sphere | gel | 120000 | 1 |  |  | 
10 | CC[C@H](C)[C@H](NC(=O)[C@H](Cc1c[nH]c2ccccc12)NC(=O)[C@@H](N)C(C)C)C(=O)N[C@H](C(=O)O)[C@@H](C)O [VWIT] (H-VWIT-OH) | aggregates | precipitate | 120000 | 0 |  |  | 
11 | N[C@@H](CO)C(=O)N[C@@H](Cc1ccc(O)cc1)C(=O)N[C@@H](Cc1ccccc1)C(=O)N[C@@H](Cc1ccccc1)C(=O)O [SYFF] (H-SYFF-OH) |  |  | 30000 |  | gel | 1 | Morphology ([1]; line of the table gives 30 mM): fibre
12 | CC[C@H](C)[C@H](NC(=O)[C@@H](N)CS)C(=O)N[C@@H](Cc1ccc(O)cc1)C(=O)N[C@@H](Cc1ccccc1)C(=O)O [CIYF] (H-CIYF-OH) |  |  | 60000 |  |  |  | Morphology ([1]; line of the table gives 60 mM): fibre; State [2, 5]: gel; GELATION ([2]; peptide concentration 60 mM): 1
13 | CC[C@H](C)[C@H](NC(=O)[C@H](C)NC(=O)[C@@H](NC(=O)[C@@H](N)CC(C)C)C(C)C)C(=O)O [LVAI] (H-LVAI-OH) |  |  | 60000 |  |  |  | Morphology ([1]; line of the table gives 60 mM): fibre; State [2, 5]: gel; GELATION ([2]; peptide concentration 60 mM): 1
14 | CC(C)C[C@H](N)C(=O)N[C@@H](Cc1ccccc1)C(=O)N[C@@H](Cc1c[nH]c2ccccc12)C(=O)N[C@@H](CO)C(=O)O [LFWS] (H-LFWS-OH) | sphere | gel | 120000 | 1 |  |  | 
15 | C[C@H](N)C(=O)N[C@@H](C)C(=O)N[C@@H](C)C(=O)N[C@@H](C)C(=O)O [AAAA] (H-AAAA-OH) | blank | sol | 120000 | 0 |  |  | 
16 | CC(C)C[C@H](N)C(=O)N[C@H](C(=O)N[C@@H](Cc1ccccc1)C(=O)NCC(=O)O)C(C)C [LVFG] (H-LVFG-OH) |  |  | 60000 |  |  |  | Morphology ([1]; line of the table gives 60 mM): aggregates; State [2, 5]: gel; GELATION ([2]; peptide concentration 60 mM): 1

Row | Compound | Morphology ([1]; line of the table gives 120 mM) | State [2, 3] | Concentration [2] [µM] | GELATION ([2]; peptide concentration 120 mM) | State [2, 4] | GELATION ([2]; peptide concentration 30 mM) | further results
17 | CC[C@H](C)[C@H](N)C(=O)N[C@H](C(=O)N[C@@H](Cc1ccccc1)C(=O)N[C@@H](Cc1c[nH]c2ccccc12)C(=O)O)C(C)C [IVFW] (H-IVFW-OH) | sphere | gel | 120000 | 1 |  |  | 
18 | CC(C)C[C@H](NC(=O)[C@@H](N)CC(C)C)C(=O)N[C@@H](CCCNC(=N)N)C(=O)N[C@@H](CCC(N)=O)C(=O)O [LLRQ] (H-LLRQ-OH) | aggregates | suspension | 120000 | 0 |  |  | 
19 | CC[C@H](C)[C@H](NC(=O)[C@@H](NC(=O)[C@@H](N)Cc1c[nH]c2ccccc12)[C@@H](C)O)C(=O)N[C@@H](Cc1ccccc1)C(=O)O [WTIF] (H-WTIF-OH) |  |  | 30000 |  | gel | 1 | Morphology ([1]; line of the table gives 30 mM): fibre; morphology by TEM (in words) [1]: entangled nanofibers; hydrogel formation (in words) [2]: hydrogels
20 | NCC(=O)NCC(=O)NCC(=O)NCC(=O)O [GGGG] (H-GGGG-OH) | aggregates | sol | 120000 | 0 |  |  | 
21 | CC[C@H](C)[C@H](N)C(=O)N[C@@H](Cc1c[nH]c2ccccc12)C(=O)N1CCC[C@H]1C(=O)N[C@@H](Cc1c[nH]c2ccccc12)C(=O)O [IWPW] (H-IWPW-OH) | aggregates | precipitate | 120000 | 0 |  |  | 
22 | CC[C@H](C)[C@H](NC(=O)[C@@H](NC(=O)[C@@H](NC(=O)[C@@H]1CCCN1)C(C)C)[C@@H](C)CC)C(=O)O [PVII] (H-PVII-OH) |  |  | 90000 |  |  |  | Morphology ([1]; line of the table gives 90 mM): fibre; State ([2]; 90 mM peptide in ultrapure water, pH 6.5-8.5 (1 N NaOH), no gel at lower concentrations): gel; GELATION ([2]; peptide concentration 90 mM): 1
23 | CC[C@H](C)[C@H](N)C(=O)N[C@H](C(=O)N[C@H](C(=O)N[C@H](C(=O)O)[C@@H](C)CC)[C@@H](C)CC)C(C)C [IVII] (H-IVII-OH) |  |  | 30000 |  | gel | 1 | Morphology ([1]; line of the table gives 30 mM): sheet
24 | CC(C)[C@H](NC(=O)[C@@H](N)CC(N)=O)C(=O)N[C@@H](Cc1ccccc1)C(=O)N[C@@H](Cc1c[nH]cn1)C(=O)O [NVFH] (H-NVFH-OH) | aggregates | suspension | 120000 | 0 |  |  | 
25 | O=C(O)[C@H](Cc1ccc(O)cc1)NC(=O)[C@H](Cc1c[nH]c2ccccc12)NC(=O)[C@H](Cc1c[nH]c2ccccc12)NC(=O)[C@@H]1CCCN1 [PWWY] (H-PWWY-OH) | aggregates | sol | 120000 | 0 |  |  | 
26 | CC[C@H](C)[C@H](N)C(=O)N[C@@H](CCSC)C(=O)N[C@H](C(=O)N[C@H](C(=O)O)C(C)C)C(C)C [IMVV] (H-IMVV-OH) |  |  | 30000 |  | gel | 1 | Morphology ([1]; line of the table gives 30 mM): aggregates; hydrogel formation (in words) [2]: can form hydrogel
27 | CSCC[C@H](NC(=O)[C@H](CCSC)NC(=O)[C@H](Cc1ccccc1)NC(=O)[C@@H](N)Cc1c[nH]c2ccccc12)C(=O)O [WFMM] (H-WFMM-OH) |  |  | 30000 |  | gel | 1 | Morphology ([1]; line of the table gives 30 mM): fibre
28 | CC[C@H](C)[C@H](N)C(=O)N[C@@H](CC(C)C)C(=O)N[C@H](C(=O)N[C@H](C(=O)O)C(C)C)C(C)C [ILVV] (H-ILVV-OH) |  |  | 30000 |  | gel | 1 | Morphology ([1]; line of the table gives 30 mM): aggregates
29 | C[C@@H](O)[C@H](N)C(=O)N[C@H](C(=O)N[C@H](C(=O)N[C@H](C(=O)O)[C@@H](C)O)[C@@H](C)O)[C@@H](C)O [TTTT] (H-TTTT-OH) | aggregates | suspension | 120000 | 0 |  |  | 
30 | CSCC[C@H](NC(=O)[C@H](CC(N)=O)NC(=O)[C@@H](NC(=O)CN)C(C)C)C(=O)O [GVNM] (H-GVNM-OH) | sphere | suspension | 120000 | 0 |  |  | 
31 | N[C@@H](CO)C(=O)N[C@@H](Cc1c[nH]c2ccccc12)C(=O)N[C@@H](Cc1ccc(O)cc1)C(=O)N[C@@H](Cc1ccccc1)C(=O)O [SWYF] (H-SWYF-OH) | fibre | gel | 120000 | 1 |  |  | 
